Measured values reported in patent US9334263B2, “Compositions useful for treating disorders related to kit” (BLUEPRINT MEDICINES CORPORATION, priority 2013, dated 2016).

Tests used:
D816V Kit = molecular target: T1, D816V Kit (Homo sapiens, UniProt P10721, D816V); assay: Kit D816V assay at Km (Caliper electrophoretic mobility shift); format: biochemical; settings: 15 uM ATP, 25 C, 90 minutes
T1 construct: purchased Carna Bioscience 08-156
Method: In order to assess the activity of chemical compounds against the relevant kinase of interest, the Caliper LifeSciences electrophoretic mobility shift technology platform is used. Fluorescently labeled substrate peptide is incubated in the presence of kinase and ATP so that a […] proportion of the peptide is phosphorylated. At the end of the reaction, the mix of phosphorylated (product) and non-phosphorylated (substrate) peptides are passed through the microfluidic system of the Caliper EZ Reader 2, under an applied potential difference. The presence of the phosphate group on the product peptide provides a difference in mass and charge between those of the substrate peptide, resulting in a separation of the substrate and product pools in the sample. As the pools pass a LEDS within the instrument, these pools are detected and resolved as separate peaks. The ratio between these peaks therefore reflects the activity of the chemical matter at that concentration in that well, under those conditions.
The reaction was stopped by the addition of 70 ul of Stop buffer (100 mM HEPES pH 7.5, 0.015% Brij 35, 35 mM EDTA and 0.2% of Coating Reagent 3 (Caliper Lifesciences)). The plate was then read on a Caliper EZReader 2 (protocol settings: −1.9 psi, upstream voltage −700, downstream voltage −3000, post sample sip 35 s).

[1] = molecular target: T2, Kit D816V (HMC1.2 cells, Kit V560G and D816V) (Homo sapiens, UniProt P10721, D816V/V560G); assay: HMC1.2 autophosphorylation assay (AlphaLISA, phospho-Y719 c-Kit); format: cell-based; settings: Kit autophosphorylation at tyrosine 719, 90 minutes, read-out: Cellular Activity
T2 construct: endogenous in cells; host or cells: HMC1.2 cells
T2 sequence (P10721 26-976 V560G/D816V): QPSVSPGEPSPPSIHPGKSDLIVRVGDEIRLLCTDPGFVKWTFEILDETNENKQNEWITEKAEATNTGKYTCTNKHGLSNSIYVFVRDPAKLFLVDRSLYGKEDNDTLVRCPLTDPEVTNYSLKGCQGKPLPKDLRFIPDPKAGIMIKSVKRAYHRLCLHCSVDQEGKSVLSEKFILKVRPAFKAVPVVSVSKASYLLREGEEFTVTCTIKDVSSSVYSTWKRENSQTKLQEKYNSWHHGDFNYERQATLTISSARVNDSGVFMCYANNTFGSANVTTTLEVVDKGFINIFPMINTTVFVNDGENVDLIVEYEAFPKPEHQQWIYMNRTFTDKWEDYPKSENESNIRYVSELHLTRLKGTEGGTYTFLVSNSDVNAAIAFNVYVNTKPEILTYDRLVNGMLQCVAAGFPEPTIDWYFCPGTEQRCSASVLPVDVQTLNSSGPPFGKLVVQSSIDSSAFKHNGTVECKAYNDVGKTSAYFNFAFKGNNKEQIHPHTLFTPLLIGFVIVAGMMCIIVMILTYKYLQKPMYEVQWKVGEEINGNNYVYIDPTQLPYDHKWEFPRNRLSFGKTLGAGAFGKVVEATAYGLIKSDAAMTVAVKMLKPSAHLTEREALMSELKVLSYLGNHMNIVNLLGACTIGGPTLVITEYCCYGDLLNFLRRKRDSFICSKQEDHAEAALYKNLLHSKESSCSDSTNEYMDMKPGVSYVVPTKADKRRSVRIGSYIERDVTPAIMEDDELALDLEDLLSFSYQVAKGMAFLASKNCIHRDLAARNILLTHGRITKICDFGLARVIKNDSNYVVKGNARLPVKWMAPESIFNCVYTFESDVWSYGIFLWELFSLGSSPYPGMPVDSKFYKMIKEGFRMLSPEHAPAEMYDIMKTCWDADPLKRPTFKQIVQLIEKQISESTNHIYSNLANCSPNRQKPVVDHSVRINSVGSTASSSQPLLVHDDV
Method: HMC1.2 Autophosphorylation Assay:
10,000 HMC1.2 cells were incubated in 22 ul culture media (phenol-red free IMDM, no serum) in each well of a 384-well plate and serum starved overnight in a tissue culture incubator (5% CO2, 37° C.). A 10-point dose concentration series of compound (25 uM-95.4 pM) were then added to the cells in a volume of 3.1 ul to each well (0.25% DMSO final concentration). After 90 minutes, 6 ul of 5× AlphaLISA Lysis Buffer (Perkin Elmer) supplemented with a protease and phosphatase inhibitor cocktail (Cell Signaling Technologies) was added to each well and shaken at 450 rpm for 15 minutes at 4° C. 10 ul of phospho-Y719 c-Kit and total c-Kit antibodies (15 nM final concentration, Cell Signaling Technologies) and 50 ug/ml AlphaLISA rabbit acceptor beads (Perkin Elmer) were added to each well and shaken at 300 rpm at room temperature for 2 hours. 10 ul of 100 ug/ml streptavidin donor beads (Perkin Elmer) were added to each well, blocked from light with aluminum adhesive and shaken at 300 rpm at room temperature for 2 hours. Fluorescence signal was obtained on Envision (Perkin Elmer) by AlphaScreen 384 well HTS protocol.
This cell line contains Kit mutated at positions V560G and D816V resulting in constitutive activation of the kinase. The following compounds were tested in an assay to measure direct inhibition of Kit D816V kinase activity by assaying Kit autophosphorylation at tyrosine 719 on the Kit protein.

T1 sequence (P10721 26-976 D816V): as the sequence (P10721 26-976 V560G/D816V) above, with G535V counted along it

| IC50 (D816V Kit) [nM] | IC50 [1] [nM] | Compound |
| --- | --- | --- |
| < 1 | 10 to 100 | Cn1cc(Nc2ncnc(N3CCN(c4ncc([C@](C)(O)c5ccc(F)cc5)cn4)CC3)n2)cn1 [Compound 39] |
| 1.01 to 10 | 10 to 100 | C[C@@](O)(c1ccccc1)c1cnc(N2CCN(c3ncnc(Nc4ccc(N5CCOCC5)cc4)n3)CC2)nc1 [Compound 234] |
| < 1 | 10 to 100 | CC(C)(c1ccccc1)c1cnc(N2CCN(c3ncnc(Nc4cnn(C[C@@H]5CNCCO5)c4)n3)CC2)nc1 [Compound 244] |
| < 1 | 10 to 100 | c1ccc(Cc2cnc(N3CCN(c4ncnc(Nc5cnn(C[C@H]6COCCO6)c5)n4)CC3)nc2)cc1 [Compound 133] |
| < 1 | 10 to 100 | CC(C)(O)[C@H](O)c1ccc(Nc2ncnc(N3CCN(c4ncc(Cc5ccccc5)cn4)CC3)n2)cc1 [Compound 121] |
| < 1 | 10 to 100 | OC[C@H](O)COc1cccc(Nc2ncnc(N3CCN(c4ncc(Cc5ccccc5)cn4)CC3)n2)c1 [Compound 132] |
| < 1 | 10 to 100 | Fc1ccccc1Sc1cnc(N2CCN(c3ncnc(Nc4cnn(C[C@@H]5CNCCO5)c4)n3)CC2)nc1 [Compound 255] |
| < 1 | 10 to 100 | CC(C)(O)Cn1cc(Nc2ncnc(N3CCN(c4ncc(C(C)(C)c5ccc(F)cc5)cn4)CC3)n2)cn1 [Compound 201] |
| 1.01 to 10 | 10 to 100 | c1ccc(Cc2cnc(N3CCN(c4ncnc(Nc5cnn(C6CNC6)c5)n4)CC3)nc2)cc1 [Compound 27] |
| 10 to 100 |  | c1nc(Nc2cnn(C[C@@H]3CNCCO3)c2)nc(N2CCN(c3ncc(CCC4CC4)cn3)CC2)n1 [Compound 67] |
| < 1 | 10 to 100 | OC[C@H](O)c1ccc(Nc2ncnc(N3CCN(c4ncc(Cc5ccc(F)cc5)cn4)CC3)n2)cc1 [Compound 93] |
| < 1 | 10 to 100 | O[C@@H]1CCN(c2ccc(Nc3ncnc(N4CCN(c5ncc(Cc6ccccc6)cn5)CC4)n3)cc2)C[C@@H]1O [Compound 232] |
| < 1 | 10 to 100 | Fc1ccc(Cc2cnc(N3CCN(c4ncnc(Nc5cnn(C[C@@H]6CNCCO6)c5)n4)CC3)nc2)cc1 [Compound 196] |
| > 100 |  | Nc1nc(N2CCN(c3ncnc(NC4CC4)n3)CC2)ncc1Cc1ccccc1 [Compound 3] |
| 1.01 to 10 | 1000 to 10000 | Fc1cc(N2CCNCC2)ccc1Nc1ncnc(N2CCN(c3ncc(Cc4ccccc4)cn3)CC2)n1 [Compound 175] |
| > 100 | > 10000 | CN1CCC(CCNc2ncnc(N3CCN(c4ncc(Cc5ccccc5)cn4)CC3)n2)CC1 [Compound 35] |
| < 1 | 10 to 100 | C[C@H](O)Cn1cc(Nc2ncnc(N3CCN(c4ncc(Sc5ccccc5F)cn4)CC3)n2)cn1 [Compound 100] |
| < 1 | 10 to 100 | C[C@H](c1ccccc1)c1cnc(N2CCN(c3ncnc(Nc4cnn(C[C@@H]5CNCCO5)c4)n3)CC2)nc1 [Compound 186, N-(1-((S)-morpholin-2-ylmethyl)-1H-pyrazol-4-yl)-4-(4-(5-((R)-1-phenylethyl)pyrimidin-2-yl)piperazin-1-yl)-1,3,5-triazin-2-amine] |
| < 1 | 10 to 100 | c1ccc(Cc2cnc(N3CCN(c4ncnc(Nc5ccc(O[C@@H]6CCNC6)cc5)n4)CC3)nc2)cc1 [Compound 107] |
| 1.01 to 10 | 1000 to 10000 | c1cnc(N2CCN(c3ncnc(Nc4ccc5c(c4)CNCC5)n3)CC2)nc1 [Compound 2] |
| 1.01 to 10 | 10 to 100 | Fc1cccc(Cc2cnc(N3CCN(c4ncnc(Nc5ccc6c(c5)CNCC6)n4)CC3)nc2)c1 [Compound 80] |
| 1.01 to 10 | 10 to 100 | Fc1ccc(Sc2ncc(N3CCN(c4ncnc(Nc5cnn(C[C@@H]6CNCCO6)c5)n4)CC3)nn2)cc1 [Compound 258] |
| 1.01 to 10 | 10 to 100 | CCN1CCO[C@H](Cn2cc(Nc3ncnc(N4CCN(c5ncc(Cc6ccccc6)cn5)CC4)n3)cn2)C1 [Compound 241] |
| < 1 | < 10 | Cn1cc(Nc2ncnc(N3CCN(c4ncc([C@@](C)(N)c5ccc(F)cc5)cn4)CC3)n2)cn1 [Compound 36] |

| IC50 (D816V Kit) [nM] | IC50 [1] [nM] | Compound |
| --- | --- | --- |
| > 100 |  | C(#CC1CC1)c1cnc(N2CCN(c3ncnc(Nc4cnn(C[C@@H]5CNCCO5)c4)n3)CC2)nc1 [Compound 63, (S)-4-(4-(5-(cyclopropylethynyl)pyrimidin-2-yl)piperazin-1-yl)-N-(1-(morpholin-2-ylmethyl)-1H-pyrazol-4-yl)-1,3,5-triazin-2-amine] |
| 1.01 to 10 | 10 to 100 | CN1CCNC[C@H]1Cn1cc(Nc2ncnc(N3CCN(c4ncc(Cc5ccccc5)cn4)CC3)n2)cn1 [Compound 176] |
| 1.01 to 10 | 10 to 100 | Cc1nn(C2COC2)cc1Nc1ncnc(N2CCN(c3ncc(Sc4ccccc4F)cn3)CC2)n1 [Compound 146] |
| < 1 | < 10 | C[C@](O)(c1ccccc1)c1cnc(N2CCN(c3ncnc(Nc4ccc(N5CCOCC5)cc4)n3)CC2)nc1 [Compound 235] |
| < 1 | 10 to 100 | c1ccc(Cc2cnc(N3CCN(c4ncnc(Nc5cnn(C[C@@H]6COCCO6)c5)n4)CC3)nc2)cc1 [Compound 134] |
| 10 to 100 |  | Cc1c(Nc2ncnc(N3CCN(c4ncc(Br)cn4)CC3)n2)cnn1C[C@@H]1CNCCO1 [Compound 142] |
| < 1 | 10 to 100 | c1ccc(Cc2cnc(N3CCN(c4ncnc(Nc5cnn(C6COC6)c5)n4)CC3)nc2)cc1 [Compound 28] |
| 1.01 to 10 | 100 to 1000 | c1ccc(Cc2cnc(N3CCN(c4ncnc(Nc5ccc6cn[nH]c6c5)n4)CC3)nc2)cc1 [Compound 21] |
| < 1 | 10 to 100 | Cc1c(Nc2ncnc(N3CCN(c4ncc([C@](C)(O)c5ccc(F)cc5)cn4)CC3)n2)cnn1C[C@@H]1CNCCO1 [Compound 277] |
| 1.01 to 10 | 10 to 100 | c1ccc(Sc2cnc(N3CCN(c4ncnc(Nc5cnn(C[C@@H]6CNCCO6)c5)n4)CC3)nc2)cc1 [Compound 199] |
| < 1 | 10 to 100 | CC(O)(c1ccccc1)c1cnc(N2CCN(c3ncnc(Nc4cnn(C[C@@H]5CNCCO5)c4)n3)CC2)nc1 (some centres unmarked) [Compound 250] |
| 1.01 to 10 | 10 to 100 | Cc1c(Nc2ncnc(N3CCN(c4ncc([C@@](C)(O)c5ccc(F)cc5)cn4)CC3)n2)cnn1C[C@@H]1CNCCO1 [Compound 276] |
| > 100 | > 10000 | Clc1ncc(N2CCN(c3ncnc(Nc4cnn(CC5CNCCO5)c4)n3)CC2)nn1 (centres unmarked) [Compound 18] |
| 10 to 100 |  | Clc1ncc(N2CCN(c3ncnc(Nc4ccc5c(c4)CNCC5)n3)CC2)nn1 [Compound 8] |
| < 1 | 10 to 100 | Cn1cc(Nc2ncnc(N3CCN(c4ncc([C@@](C)(O)c5ccc(F)cc5)cn4)CC3)n2)cn1 (single isomer, unassigned) [Compound 38] |
| 10 to 100 | 1000 to 10000 | Nc1nc(N2CCN(c3ncnc(Nc4cnn(CC5CNCCO5)c4)n3)CC2)ncc1Cl (centres unmarked) [Compound 34] |
| 10 to 100 |  | Cc1cc(Nc2ncnc(N3CCN(c4ncc(Cc5ccccc5)cn4)CC3)n2)no1 [Compound 11] |
| 1.01 to 10 |  | FC(F)(c1ccccc1)c1cnc(N2CCN(c3ncnc(Nc4cnn(C[C@@H]5CNCCO5)c4)n3)CC2)nc1 [Compound 254] |
| > 100 |  | CNc1ncnc(N2CCN(c3ncc(Cc4ccccc4)c(N)n3)CC2)n1 [Compound 1] |
| 1.01 to 10 |  | C[C@@](O)(c1ccc(F)cc1)c1cnc(N2CCN(c3ncnc(Nc4cnn(C[C@@H]5CNCCO5)c4)n3)CC2)nc1 (single isomer, unassigned) [Compound 270] |
| < 1 |  | CC(O)c1ccc(Nc2ncnc(N3CCN(c4ncc([C@@](C)(N)c5ccc(F)cc5)cn4)CC3)n2)cc1 (some centres unmarked) [Compound 140] |
| 10 to 100 |  | C[C@@H]1CN(c2ncnc(Nc3cnn(C[C@@H]4CNCCO4)c3)n2)CCN1c1ncc(Br)c(N)n1 [Compound 194] |
| 10 to 100 |  | Nc1nc(N2CCN(c3ncnc(Nc4cnn(CC5CN(C=O)CCO5)c4)n3)CC2)ncc1Cl (centres unmarked) [Compound 90] |
| 10 to 100 |  | OC[C@H]1CN(c2ncnc(Nc3cnn(CC4CNCCO4)c3)n2)CCN1c1ncc(Cc2ccccc2)cn1 (some centres unmarked) [Compound 247] |
